Article PMC5421785, “Citrullination only infrequently impacts peptide binding to HLA class II MHC” (PLoS ONE, 2017)
Like-named read-outs stand apart in the source and are kept apart here. Square brackets hold non-standard residues; d marks the D form. Ends that are not written are not given here. Peptide text beside a SMILES is read from it. Cit = NC(=O)NCCC[C@H](N)C(=O)O

Key:
[1] = biological target: T1, HLA-DRB1*04:01 (Homo sapiens, UniProt P01903+P01911, A100K/A169T/F76Y/I96L/K127E/L162R/M171V/N62H/P40V/Q125Y/R42H/S133A/S149N/S66Y/V115G/V209L/W38E); assay: HLA class II peptide binding, inhibition of radiolabeled peptide binding to purified MHC
T1 construct: EBV transformed homozygous cell lines were used as sources of MHC molecules; endogenous in cells; host or cells: EBV transformed homozygous cell lines

[2] = biological target: T2, HLA-DRB1*01:01 (Homo sapiens, UniProt P01903+P01911, A100R/D57E/F55L/F60I/F76Y/I96L/L162R/M171V/P40L/Q125E/R42F/V115G/Y59C); assay: as above
T2 construct: EBV transformed homozygous cell lines were used as sources of MHC molecules; endogenous in cells; host or cells: EBV transformed homozygous cell lines

[3] = citrullinated 15-mer peptide (X = citrulline), purified HLA-DRB1*04:01, read-out: DRB1*04:01 binding capacity, Cit peptide (IC50 nM)
[4] = citrullinated 15-mer peptide (X = citrulline), purified HLA-DRB1*01:01, read-out: DRB1*01:01 binding capacity, Cit peptide (IC50 nM)
[5] = citrullinated 15-mer (X), purified MHC, inhibition of radiolabeled peptide binding, dash = IC50 >40,000 nM, read-out: DRB1*04:01 binding capacity, Cit peptide (IC50 nM)
[6] = citrullinated 15-mer (X), purified MHC, inhibition of radiolabeled peptide binding, dash = IC50 >40,000 nM, read-out: DRB1*01:01 binding capacity, Cit peptide (IC50 nM)
[7] = wild-type (unmodified Arg) 15-mer peptide, purified HLA-DRB1*04:01, read-out: DRB1*04:01 binding capacity, WT peptide (IC50 nM)
[8] = wild-type (unmodified Arg) 15-mer peptide, purified HLA-DRB1*01:01, read-out: DRB1*01:01 binding capacity, WT peptide (IC50 nM)
[9] = read-out: DRB1*04:01 binding capacity, WT peptide (IC50 nM)
[10] = read-out: DRB1*01:01 binding capacity, WT peptide (IC50 nM)

Compound | IC50 [1, 3] [nM] | IC50 [2, 4] [nM] | IC50 [1, 5] [nM] | IC50 [2, 6] [nM] | further results
CC[C@H](C)[C@H](NC(=O)[C@H](CC(C)C)NC(=O)[C@H](CC(C)C)NC(=O)[C@@H](NC(=O)[C@H](CCCNC(N)=O)NC(=O)[C@H](CCCCN)NC(=O)[C@H](CO)NC(=O)[C@H](Cc1c[nH]cn1)NC(=O)[C@@H](NC(=O)[C@H](CC(=O)O)NC(=O)[C@@H](NC(=O)[C@H](CC(C)C)NC(=O)[C@@H]1CCCN1C(=O)[C@@H](N)CC(C)C)C(C)C)[C@@H](C)O)[C@@H](C)O)C(=O)N[C@@H](CCCCN)C(=O)O [LPLVDTHSKXTLLIK] (H-LPLVDTHSK[Cit]TLLIK-OH) | 2590 | 344 | – | – | –
CC(C)C[C@H](NC(=O)CNC(=O)[C@@H](N)CC(=O)O)C(=O)N[C@@H](C)C(=O)NCC(=O)N1CCC[C@H]1C(=O)N[C@@H](CCCCN)C(=O)NCC(=O)N[C@@H](C)C(=O)N1CCC[C@H]1C(=O)NCC(=O)N[C@@H](CCC(=O)O)C(=O)N[C@@H](CCCNC(N)=O)C(=O)NCC(=O)N1CCC[C@H]1C(=O)O [DGLAGPKGAPGEXGP] (H-DGLAGPKGAPGE[Cit]GP-OH) | > 40000 | 1120 | – | – | –
CC(C)C[C@H](NC(=O)[C@H](CC(N)=O)NC(=O)[C@H](CC(=O)O)NC(=O)[C@H](CCCNC(N)=O)NC(=O)[C@H](CCC(=O)O)NC(=O)[C@@H](NC(=O)[C@H](CCC(=O)O)NC(=O)[C@@H](NC(=O)[C@H](CCCNC(=N)N)NC(=O)[C@H](C)NC(=O)[C@H](CCCCN)NC(=O)[C@H](CC(=O)O)NC(=O)[C@@H](N)CC(N)=O)C(C)C)C(C)C)C(=O)N[C@@H](C)C(=O)N[C@@H](CCC(=O)O)C(=O)O [NDKARVEVEXDNLAE] (H-NDKARVEVE[Cit]DNLAE-OH) | – | – | 1410 | 578 | –
CC(C)C[C@H](NC(=O)CNC(=O)[C@@H]1CCCN1C(=O)[C@H](C)NC(=O)CNC(=O)[C@@H]1CCCN1C(=O)[C@H](CC(C)C)NC(=O)CNC(=O)[C@H](CCCCN)NC(=O)[C@H](CCC(=O)O)NC(=O)CNC(=O)[C@H](C)NC(=O)[C@@H](N)CCCCN)C(=O)N[C@@H](CCCNC(N)=O)C(=O)NCC(=O)O [KAGEKGLPGAPGLXG] (H-KAGEKGLPGAPGL[Cit]G-OH) | > 40000 | 578 | – | – | –
CC[C@H](C)[C@H](NC(=O)[C@H](CC(=O)O)NC(=O)[C@H](CC(C)C)NC(=O)[C@H](C)NC(=O)[C@H](CCSC)NC(=O)[C@H](CCCCN)NC(=O)[C@@H](NC(=O)[C@H](CC(N)=O)NC(=O)[C@H](CC(C)C)NC(=O)[C@H](CC(C)C)NC(=O)[C@H](CC(=O)O)NC(=O)[C@H](CCC(N)=O)NC(=O)[C@H](Cc1ccc(O)cc1)NC(=O)[C@H](CCC(=O)O)NC(=O)[C@@H](N)CCCNC(=N)N)C(C)C)C(=O)O [Vimentin 381 WT] | – | – | – | – | IC50 [1, 7]: 1220 nM; IC50 [2, 8]: 192 nM
CC(C)C[C@H](NC(=O)[C@H](C)NC(=O)[C@H](CC(=O)O)NC(=O)[C@H](CC(N)=O)NC(=O)[C@H](CC(N)=O)NC(=O)[C@H](CCCNC(N)=O)NC(=O)[C@H](CC(N)=O)NC(=O)[C@H](C)NC(=O)[C@H](C)NC(=O)[C@H](CCC(=O)O)NC(=O)[C@H](CO)NC(=O)[C@H](CC(C)C)NC(=O)[C@H](CC(=O)O)NC(=O)[C@H](C)N)C(=O)N[C@@H](CCCNC(=N)N)C(=O)O [ADLSEAANXNNDALR] (H-ADLSEAAN[Cit]NNDALR-OH) | – | – | 22200 | 7340 | –
CC(C)C[C@H](NC(=O)[C@@H](NC(=O)[C@H](C)NC(=O)[C@H](C)NC(=O)[C@@H](NC(=O)[C@@H](N)CC(C)C)C(C)C)C(C)C)C(=O)N[C@@H](CCCNC(N)=O)C(=O)N[C@@H](CS)C(=O)N[C@@H](CCC(N)=O)C(=O)NCC(=O)N[C@@H](CCC(N)=O)C(=O)N[C@@H](CC(=O)O)C(=O)N[C@H](C(=O)N[C@@H](CCC(N)=O)C(=O)N[C@@H](CCC(=O)O)C(=O)O)C(C)C [LVAAVLXCQGQDVQE] (H-LVAAVL[Cit]CQGQDVQE-OH) | 32700 | 93 | – | – | –
CC[C@H](C)[C@H](NC(=O)[C@H](CCCCN)NC(=O)[C@H](CC(N)=O)NC(=O)[C@H](CCC(N)=O)NC(=O)[C@H](CCC(N)=O)NC(=O)[C@H](CCC(=O)O)NC(=O)[C@H](CC(C)C)NC(=O)[C@H](Cc1ccccc1)NC(=O)[C@H](CCCNC(N)=O)NC(=O)[C@@H](N)C(C)C)C(=O)N[C@@H](CC(C)C)C(=O)N[C@@H](CC(C)C)C(=O)N[C@@H](C)C(=O)N[C@@H](CCC(=O)O)C(=O)N[C@@H](CC(C)C)C(=O)O [VXFLEQQNKILLAEL] | – | – | 6590 | 7.8 | –
YATRSSAVRLRSSVP [Vimentin 61 WT] | – | – | – | – | IC50 [1, 9]: 1600 nM; IC50 [2, 10]: 17 nM
CC[C@H](C)[C@H](NC(=O)[C@H](CCC(=O)O)NC(=O)[C@@H](NC(=O)[C@H](CC(=O)O)NC(=O)[C@H](CC(N)=O)NC(=O)[C@@H](N)CO)C(C)C)C(=O)N[C@@H](CCCNC(N)=O)C(=O)N[C@@H](C)C(=O)N[C@@H](CCC(=O)O)C(=O)NCC(=O)N[C@@H](CC(N)=O)C(=O)N[C@@H](CO)C(=O)N[C@@H](CCCNC(=N)N)C(=O)N[C@@H](Cc1ccccc1)C(=O)N[C@H](C(=O)O)[C@@H](C)O [SNDVEIXAEGNSRFT] (H-SNDVEI[Cit]AEGNSRFT-OH) | – | – | – | – | IC50 ([1]; citrullinated peptide as listed (X at Cit position), read-out: DRB1*04:01 binding capacity Cit peptide (IC50 nM)): 929 nM; IC50 ([2]; citrullinated peptide as listed (X at Cit position), read-out: DRB1*01:01 binding capacity Cit peptide (IC50 nM)): 1520 nM
RSSVPGVRLLQDSVD [Vimentin 71 WT] | – | – | – | – | IC50 [1, 9]: 4620 nM; IC50 [2, 10]: 261 nM
CC(C)C[C@H](NC(=O)[C@H](CC(=O)O)NC(=O)[C@H](C)NC(=O)[C@H](Cc1ccccc1)NC(=O)[C@H](CCCCN)NC(=O)[C@H](CO)NC(=O)[C@H](CCCCN)NC(=O)[C@@H](N)Cc1ccc(O)cc1)C(=O)N[C@@H](CO)C(=O)N[C@@H](CCC(=O)O)C(=O)N[C@@H](C)C(=O)N[C@@H](C)C(=O)N[C@@H](CC(N)=O)C(=O)N[C@@H](CCCNC(N)=O)C(=O)N[C@@H](CC(N)=O)C(=O)O [YKSKFADLSEAANXN] (H-YKSKFADLSEAAN[Cit]N-OH) | – | – | 1110 | 292 | –
CC[C@H](C)[C@H](NC(=O)[C@@H](N)CCC(=O)O)C(=O)N[C@@H](C)C(=O)N[C@H](C(=O)N[C@@H](Cc1ccc(O)cc1)C(=O)N[C@@H](CCCNC(N)=O)C(=O)N[C@@H](CCCCN)C(=O)N[C@@H](CC(C)C)C(=O)N[C@@H](CC(C)C)C(=O)N[C@@H](CCC(=O)O)C(=O)NCC(=O)N[C@@H](CCC(=O)O)C(=O)N[C@@H](CCC(=O)O)C(=O)N[C@@H](CO)C(=O)N[C@@H](CCCNC(=N)N)C(=O)O)[C@@H](C)O [EIATYXKLLEGEESR] (H-EIATY[Cit]KLLEGEESR-OH) | 3810 | 360 | – | – | –
LPLVDTHSKRTLLIK [Vimentin 431 WT] | – | – | – | – | IC50 [1, 7]: 5090 nM; IC50 [2, 8]: 641 nM
ERKVESLQEEIAFLK [Vimentin 221 WT] | – | – | – | – | IC50 [1, 9]: > 40000 nM; IC50 [2, 10]: 103 nM
CC[C@H](C)[C@H](NC(=O)[C@H](CCCNC(=N)N)NC(=O)[C@H](CO)NC(=O)[C@H](CCC(=O)O)NC(=O)[C@H](CCC(=O)O)NC(=O)CNC(=O)[C@H](CCC(=O)O)NC(=O)[C@H](CC(C)C)NC(=O)[C@H](CC(C)C)NC(=O)[C@H](CCCCN)NC(=O)[C@@H](N)CCCNC(=N)N)C(=O)N[C@@H](CO)C(=O)N[C@@H](CC(C)C)C(=O)N1CCC[C@H]1C(=O)N[C@@H](CC(C)C)C(=O)O [Vimentin 401 WT] | – | – | – | – | IC50 [1, 7]: 2710 nM; IC50 [2, 8]: 1920 nM
CSCC[C@H](NC(=O)[C@H](CCC(=O)O)NC(=O)[C@H](CCC(=O)O)NC(=O)[C@H](CCC(=O)O)NC(=O)[C@H](Cc1ccc(O)cc1)NC(=O)[C@H](CC(C)C)NC(=O)[C@H](CC(=O)O)NC(=O)CNC(=O)[C@@H](N)CC(C)C)C(=O)N[C@@H](CCCNC(N)=O)C(=O)N[C@@H](CCC(=O)O)C(=O)N[C@@H](CC(C)C)C(=O)N[C@@H](CCCNC(=N)N)C(=O)N[C@@H](CCCNC(=N)N)C(=O)N[C@@H](CCC(N)=O)C(=O)O [LGDLYEEEMXELRRQ] | – | – | > 40000 | 13800 | –
CC[C@H](C)[C@H](NC(=O)CN)C(=O)N[C@H](C(=O)NCC(=O)N[C@@H](CC(C)C)C(=O)N1CCC[C@H]1C(=O)NCC(=O)N[C@@H](CCC(N)=O)C(=O)N[C@@H](CCCNC(N)=O)C(=O)NCC(=O)N[C@@H](CCC(=O)O)C(=O)N[C@@H](CCCNC(=N)N)C(=O)NCC(=O)N[C@@H](Cc1ccccc1)C(=O)N1CCC[C@H]1C(=O)O)C(C)C [GIVGLPGQXGERGFP] (H-GIVGLPGQ[Cit]GERGFP-OH) | 2050 | 3.6 | – | – | –
CC(C)C[C@H](NC(=O)[C@H](CO)NC(=O)[C@H](C)NC(=O)[C@H](CC(N)=O)NC(=O)[C@H](CC(=O)O)NC(=O)[C@@H](NC(=O)[C@H](CC(=O)O)NC(=O)[C@H](CCC(N)=O)NC(=O)[C@H](CCCNC(N)=O)NC(=O)[C@H](Cc1ccccc1)NC(=O)[C@H](CO)NC(=O)[C@H](CCC(N)=O)NC(=O)[C@H](CC(C)C)NC(=O)[C@@H](NC(=O)[C@@H](N)CC(N)=O)[C@@H](C)O)C(C)C)C(=O)O [NTLQSFXQDVDNASL] (H-NTLQSF[Cit]QDVDNASL-OH) | – | – | 702 | 2000 | –
